According to paper PMC6015499 (Journal of medicinal chemistry, 2017):
Read-outs that look alike come from different tables or passages of the source.

What was measured:
Huh7.5.1 cells = test: ATPlite cytotoxicity assay; assay type: cell-based
PAMPA permeability = assay type: in vitro ADME
[1] = In vivo pharmacokinetics and tissue distribution in mice; set-up: species or system male CD-1 mice; settings: mouse, single i.p. dose 1 mg/kg
[2] = ALT level in mouse serum during pharmacokinetics study; assay type: in vivo; settings: mouse model
[3] = aqueous kinetic solubility; assay type: physicochemical; settings: phosphate buffer (pH 7.4)

Compound	PAMPA permeability (PAMPA permeability)	other results
Cc1oc(-c2ccc(Cl)c(Cl)c2)nc1CN1CCC(C(=O)NCCCN2C[C@H](C)C[C@H](C)C2)CC1 [7ii, N-(3-(cis-3,5-Dimethylpiperidin-1-yl)propyl)-1-((2-(3,4-dichlorophenyl)-5-methyloxazol-4-yl)methyl)piperidine-4-carboxamide]	522 1×10^−6 cm/s	cytotoxicity in combination (ATPlite) (Huh7.5.1 cells): without significant cytotoxicity; liver concentration throughout 24 h post-administration [1]: 3.33 to 9.82 µM; hepatotoxicity indicated by ALT level [2]: without obvious hepatotoxicity
N-(3-(cis-3,5-Dimethylpiperidin-1-yl)propyl)-1-((2-(2-chloro-6-methoxyphenyl)-5-methyloxazol-4-yl)methyl)piperidine-4-carboxamide [7ww]	–	aqueous solubility [3]: >73.0 µg/mL; PAMPA permeability (PAMPA permeability; PAMPA): 197.7 1×10^−6 cm/s
Cc1oc(-c2ccc(Cl)cc2)nc1CN1CCC(C(=O)NCCCN2C[C@H](C)C[C@H](C)C2)CC1 [7ff, N-(3-(cis-3,5-Dimethylpiperidin-1-yl)propyl)-1-((2-(4-chlorophenyl)-5-methyloxazol-4-yl)methyl)piperidine-4-carboxamide]	>635.0 1×10^−6 cm/s	–
Cc1ccccc1-c1nc(CN2CCC(C(=O)NCCCN3C[C@H](C)C[C@H](C)C3)CC2)c(C)o1 [7a, N-(3-(cis-3,5-Dimethylpiperidin-1-yl)propyl)-1-((5-methyl-2-(o-tolyl)oxazol-4-yl)-methyl)piperidine-4-carboxamide]	489.1 1×10^−6 cm/s	–
Cc1ccc2ccccc2c1-c1nc(CN2CCC(C(=O)NCCCN3C[C@H](C)C[C@H](C)C3)CC2)c(C)o1 [7bbb, N-(3-(cis-3,5-Dimethylpiperidin-1-yl)propyl)-1-((5-methyl-2-(2-methylnaphthalen-1-yl)oxazol-4-yl)methyl)piperidine-4-carboxamide]	547.1 1×10^−6 cm/s	–
Cc1ccccc1-c1nc(CN2CCC(C(=O)NCCCN3[C@H](C)CCC[C@@H]3C)CC2)c(C)o1 [7i, N-(3-(cis-2,6-Dimethylpiperidin-1-yl)propyl)-1-((5-methyl-2-(otolyl)oxazol-4-yl)methyl)piperidine-4-carboxamide]	55.4 1×10^−6 cm/s	–
CC[C@@H]1C[C@H](CC)CN(CCCNC(=O)C2CCN(Cc3nc(-c4ccccc4C)oc3C)CC2)C1 [7c, N-(3-(cis-3,5-Diethylpiperidin-1-yl)propyl)-1-((5-methyl-2-(otolyl)oxazol-4-yl)methyl)piperidine-4-carboxamide]	1267 1×10^−6 cm/s	–
Cc1ccccc1-c1nc(CN2CCC(C(=O)NCCCN3CCOCC3)CC2)c(C)o1 [7q]	432.4 1×10^−6 cm/s	–
Cc1ccccc1-c1nc(CN2CCC(C(=O)N3CCN(C4CCN(C)CC4)CC3)CC2)c(C)o1 [7r, (1-((5-Methyl-2-(o-tolyl)oxazol-4-yl)methyl)piperidin-4-yl)(4-(1-methylpiperidin-4-yl)piperazin-1-yl)methanone]	<3.2 1×10^−6 cm/s	–
Cc1cccc(F)c1-c1nc(CN2CCC(C(=O)NCCCN3C[C@H](C)C[C@H](C)C3)CC2)c(C)o1 [7ss, N-(3-(cis-3,5-Dimethylpiperidin-1-yl)propyl)-1-((2-(2-fluoro-6-methylphenyl)-5-methyloxazol-4-yl)methyl)piperidine-4-carboxamide]	233.8 1×10^−6 cm/s	–
